Values of other authors, collected in patent US8293243B2 (priority 2004, dated 2012).
*1 amine or outer side, *2 acyl side, *3 side chain or, on linkers, in order; H or OH if unused. Where a SMILES comes first, the peptide text is derived from it. Bridges are numbered along the chain shown (N, C = ends). Roman numbers before positions name the chains, in order. [ ]: non-standard residue; d: D form. Actinocin(9to1) = Cc1c2oc3c(C)ccc(C(=O)[*:1])c3nc-2c(C(=O)[*:2])c(N)c1=O; NMeV = CN[C@H](C(=O)O)C(C)C; Sar = CNCC(=O)O

Conditions: in vivo; cited from earlier work

SMILES: Cc1c2oc3c(C)ccc(C(=O)N[C@@H]4C(=O)N[C@H](C(C)C)C(=O)N5CCC[C@H]5C(=O)N(C)CC(=O)N(C)[C@@H](C(C)C)C(=O)O[C@@H]4C)c3nc-2c(C(=O)N[C@@H]2C(=O)N[C@H](C(C)C)C(=O)N3CCC[C@H]3C(=O)N(C)CC(=O)N(C)[C@@H](C(C)C)C(=O)O[C@@H]2C)c(N)c1=O [Actinomycin D] (I: T[dV]P[Sar][NMeV] / II: T[dV]P[Sar][NMeV]; ester I:1-I:C, II:1-II:C; linker I:N-II:N via Actinocin(9to1))
- passage of the blood-brain barrier: does not pass the blood-brain barrier
